In one series the test system is MSSA ATCC25923. Description: microbe, parasite or virus in culture. As to the method:
(§1) The MIC values of peptides against test stains were determined by the microtiter broth dilution method. The bacteria were grown to mid-logarithmic phase and diluted to 1 × 10^5 CFU/mL. Two-fold serial dilutions of peptides were prepared with a gradient concentration of 1280, 640, 320, 160, 80, 40, 20, 10, 5, 2.5, 1.25, and 0.625 μg/mL. A total of 10 μL each serial concentration gradient peptide solutions and 90 μL bacterial suspension were added into 96-well plates. Then the plate was cultured at 37 ℃ for 16–24 h. Vancomycin was tested as control. All assays were performed in triplicate. The MIC refers to the lowest peptide concentration at which there is no visible growth of bacteria (Wiegand et al. [2008]).

In series [1] the test system is MRSA ATCC43300. Description: microbe, parasite or virus in culture. As to the method:
as §1

A further series concerns MSSA ATCC6538. Description: microbe, parasite or virus in culture. The protocol:
as §1

For series [2], the system named is MRSA ATCC43300. Description: Time-kill curves. Type of series: cell-based, Staphylococcus aureus. The settings on record: 2× MIC. The protocol: The time-kill curves against MRSA ATCC43300 were assayed to evaluate the pharmacodynamics of peptides. The mid-log phase bacteria were diluted to 1×10^5 CFU/mL with fresh medium. […] Finally, the mixtures were cultured at 37 °C and 250 rpm. Samples (150 μL) were taken from each flask at 0, 0.5, 1, 2, 4, 6, 8, 10, 12 and 24 h of incubation, and antimicrobial efficiency was measured by plate colony count (Yang et al. [2019]). Treatment with peptide solvent (PBS) and vancomycin at 2× MIC were used as the negative and positive control. All tests were run in triplicate.

Series [3] is classed as physicochemical. The settings on record: for MIC at pH 2–10, folds of the normal condition: 3 h incubation in buffers pH 2.0–10.0, relative to MH medium. The protocol: (§2) The untreated peptides were used as control. […] All assays were performed in triplicate.
For series [4] the following is noted: ref de la Fuente-Nunez et al. [2014]; cited from earlier work. An excerpt: Antimicrobial peptides (AMPs) are kind of bioactive agents with multiple modes of action and appear as one of the most promising antimicrobial drug candidates (Hancock and Sahl [2006]). […] The antimicrobial activity of AMPs was mainly based on their positive charge and hydrophobic residues, which gave them the properties of bacterial cell membrane destruction (Mahlapuu et al. [2016]). Among them, a small synth ...

Series [5] deals with MRSA ATCC43300 biofilm. Description: Inhibition of biofilm formation, crystal violet. Type of series: cell-based, Staphylococcus aureus. As to the method: To evaluate the effect of peptides on the biofilm information, mid-logarithmic phase MRSA ATCC43300 (1×10^8 CFU/mL) was grown in tryptic soy broth (TSB) medium on 96-well plates at 37 °C […] in the presence (2–64 μg/mL) or absence of peptides (de Breij et al. [2018]; de Breij et al. [2016]). Subsequently, the planktonic bacteria were removed and biofilms were stained for 30 min with 0.1% crystal violet. After rinsing with PBS twice, the dye binding to the adherent bacterial cells was resolubilized in 95% ethanol (200 μL/well). Finally, absorbance was measured at 570 nm with a microplate reader. Fresh TSB medium was used as negative control.

Series [6] relates to genomic DNA from MRSA ATCC43300. Description: Gel retardation assay. Particulars: 10 min, room temperature, 1% agarose gel. It is filed as binding, Staphylococcus aureus. As to the method:
To examine the interaction of peptides and MRSA genomic DNA, the gel migration experiment was performed. Genomic DNA was obtained by bacterial genome extraction kit. Different concentrations (0.625 to 20 μg/mL) of peptides and DNA were mixed and incubated for 10 min at room temperature. The migration of genomic DNA was analyzed by electrophoresis on a 1% agarose gel.

In a further series the test system is trypsin. The settings on record: trypsin 250 U/mg, pH 8.0, 10:1 w/w, 4 h, 37 °C; MIC against MRSA ATCC43300. The protocol:
(§3) The pH stability of peptides was determined after 3 h incubation in 100 mM glycine-HCl buffer (pH 2.0), sodium acetate buffer (pH 4.0), sodium phosphate buffer (pH 6.0), Tris-HCl buffer (pH 8.0), or glycine-NaOH buffer (pH 10.0). Additionally, peptides were incubated in pepsin (3000 U/mg, pH 2.0) and trypsin (250 U/mg, pH 8.0) (10:1, w/w) solutions for 4 h at 37 °C, respectively. The untreated peptides were used as control. The antibacterial activity of treated peptides against MRSA ATCC43300 was determined by MIC determine assay (Yang et al. [2017]). All assays were performed in triplicate.

Series [7] is described as follows: ppGpp binding affinity by ZIC-HILIC HPLC. The settings on record: ppGpp 1000 μg/mL + peptide 400 μg/mL, 10 min, centrifuged, HPLC UV 260 nm; mean of triplicate; ppGpp control peak area 34904. The protocol: The temperature of the column is kept at 25 ℃. The ppGpp (TriLink BioTechnologies, USA) which diluted with mobile phase to a concentration of 1000 μg/mL, was used as a positive control. Then the ppGpp (1000 μg/mL) was incubated with peptides (400 μg/mL) for 10 min and centrifuged at 12000 rpm for 10 min. The ppGpp concentration of the samples was calculated by comparing the peak areas of the ppGpp standard.

Series [8] is described as follows: Temperature stability (MIC read-out). The settings on record: MIC against MRSA ATCC43300. Type of series: physicochemical. The protocol:
as §2

Series [9] deals with MRSA ATCC43300 biofilm. Briefly: Biofilms observed by CLSM and SEM. Type of series: cell-based, Staphylococcus aureus. The settings on record: 64 μg/mL, 24 h, SYTO9/PI. As to the method:
In order to further explore whether the formation of MRSA ATCC43300 biofilms can be inhibited by peptides, the mid-log phase bacteria were diluted to 1 × 10^8 CFU/mL with TSB medium and seeded into 24-well plates with a glass microscope slide or silicon slice in each well. A concentration of 64 μg/mL peptides were added into plates and incubated for 24 h. Planktonic bacteria were removed by washing with PBS gently. Biofilms on glass microscope slide were stained with SYTO9 and PI according to the instruction (LIVE/DEAD BacLight Bacterial Viability Kit). After incubation for 15 min, the slides were washed with PBS and the biofilms were visualized by SP8 CLSM. Biofilm on silicon slice could be observed by SEM after immobilization, dehydration, drying and coating (Yang et al. [2019]).

Series [10] has as its system MRSA ATCC43300. Briefly: SEM/TEM observation of treated bacteria. It is filed as cell-based, Staphylococcus aureus. Particulars: 4× MIC, 2 h, 37 °C. As to the method: The bacteria were fixed with 2.5% glutaraldehyde at 4 °C overnight. For SEM, the bacterial were then dehydrated with a series of graded ethanol solutions (20%, 50%, 70%, 85%, 95% and 100%) and dried by CO2. Gold-palladium was sputtered on samples and observed on a S4800 SEM. For TEM, bacterial were post-fixed with 1% OsO4 for 1 h and then dehydrated for 7 min each time with a graded acetone series (50%, 70%, 85%, 95% and 100%). The samples were immersed in epoxy resin and embedded in capsules containing embedding medium, polymerized at 45 °C for 3 h and at 65 °C for 24 h, respectively. Ultramicrotome was used to acquire thin sections, followed by staining with 1% uranyl acetate. Images were visualized by a Hitachi H-7650 TEM (Yang et al. [2019]).

The test system of a further series is pepsin. The settings on record: pepsin 3000 U/mg, pH 2.0, 10:1 w/w, 4 h, 37 °C; MIC against MRSA ATCC43300. The protocol:
as §3

Series [11] deals with MRSA ATCC43300. Description: qRT-PCR of ppGpp metabolism and biofilm formation related genes. It is filed as cell-based, Staphylococcus aureus. The settings on record: 4× MIC, 2 h, 16s rRNA reference. As to the method:
The ppGpp metabolism and biofilm formation related genes RSH, relP, relQ, rsbU, sigB, spA, codY, agrA and icaD were chosen in this study. Primer sequences were designed and listed in Additional file 1: Table S1. The 16s rRNA was used as a housekeeping one. […] After washing twice with PBS, the total RNA was isolated. Then cDNA was obtained followed by removing genomic DNA. Finally, real-time reverse transcription-polymerase chain reaction (qRT-PCR) was conducted as previously described. The relative expression ratios were calculated as follows: n-fold transcription = 2^−△△Ct, ∆∆Ct = ∆Ct (drug-treated)[…]∆Ct (untreated), where ∆Ct represents the difference between the cycle threshold (Ct) of the gene studied and the Ct of housekeeping 16s rRNA gene (internal control). Student’s t test was used for analyzing those PCR results (Lee et al. [2013]).
On the technique in general: Real-time PCR tracks product formation cycle by cycle.

Converted amounts (≈) assume the structure as drawn. Where no end group is shown, it is not given here.

For `CN[C@H](CC(C)C)C(=O)N[C@H]1C(=O)N[C@@H](CC(N)=O)C(=O)N[C@H]2C(=O)N[C@H]3C(=O)N[C@H](C(=O)N[C@H](C(=O)O)c4cc(O)cc(O)c4-c4cc3ccc4O)[C@H](O)c3ccc(c(Cl)c3)Oc3cc2cc(c3O[C@@H]2O[C@H](CO)[C@@H](O)[C@H](O)[C@H]2O[C@H]2C[C@](C)(N)[C@H](O)[C@H](C)O2)Oc2ccc(cc2Cl)[C@H]1O` [vancomycin, reference compound], the MIC in the series with MSSA ATCC25923 (Staphylococcus aureus), with MRSA ATCC43300 [1] (Staphylococcus aureus) and in the series with MSSA ATCC6538 (Staphylococcus aureus) was 1 µg/mL (≈ 0.69 µM) each time. Besides, the “incubation time after which bacteria rejuvenated” value with MRSA ATCC43300 [2] is on record as 10 h.

On to “VRLIVAVRIWRR-NH2 [IDR-1018, reference compound]”, for which the “MIC at pH 2–10, folds of the normal condition” value in series [3] was 1-4 times. Moreover, in series [4], the “MBIC100 (anti-biofilm)” value is 2 to 10 µg/mL and the “MIC (antibacterial)” value is 8 to 256 µg/mL. Also, the “impact on biofilm formation” value in the series with MRSA ATCC43300 biofilm [5] (2–64 μg/mL) is given as “nearly no impact”. For the same molecule, the “concentration inhibiting migration of genomic DNA” value in series [6] is 1.25 µg/mL. For the same molecule, the “MIC after trypsin, times of the untreated peptide” value in the series on trypsin is given as 16-32 times. For the same molecule, the “mean ppGpp peak area after incubation with peptide” value in series [7] turned out to be 19723. Further, the retained antibacterial activity in [8] (100 °C for 1 h) is on record as 50%.

In the case of VRLRWWRRRWRR-NH2 [1018M], in series [3] (3 h, pH 2), the “MIC at pH 2–10” value is on record as 2–4 μg/mL. Moreover, in series [3], the “MIC at pH 2–10, folds of the normal condition” value is given as 1–2 folds. In the series with MRSA ATCC43300 biofilm [5] (64 μg/mL, 24 h, A570), the “decrease of percentage of biofilm” value stood at 78.9%. The “biofilm formation observed by CLSM” value in the series on MRSA ATCC43300 biofilm [9] is on record as “completely inhibited”. Also, the “concentration inhibiting migration of genomic DNA” value in series [6] worked out at 5 µg/mL. Further, the MIC worked out at 2 µg/mL with MSSA ATCC25923 (ATCC25923), 2 µg/mL in the series with MRSA ATCC43300 [1] (ATCC43300) and 1 µg/mL in the series with MSSA ATCC6538 (ATCC6538). For the same molecule, in the series on MRSA ATCC43300 [10], the “ghost bacteria (TEM)” value is on record as “About 10%”. Further, the “activity after treatment with pepsase” value in the series on pepsin was 100%. Moreover, the “MIC after trypsin, times of the untreated peptide” value against trypsin was 16-32 times. Moreover, the “mean ppGpp peak area after incubation with peptide” value in [7] was determined as 14255. In addition, the “transcription of AgrA gene, times upregulated” value in the series on MRSA ATCC43300 [11] stood at 2.595 time. For the same molecule, the “antibacterial activity after heat exposure” value in [8] (20, 40, 60, 80 or 100 °C for 1 h, triplicate) was “not changed”.
